Experiments:
Assay type in all cases: cell-based, human
BxPC-3 cells = assay: Flow cytometry cell cycle distribution, synchronized BxPC-3 cells; conditions: 10^-6 M OGF, 21 hours
Description: For flow cytometry, cells were synchronized with 67 ng/ml nocodazole (Sigma-Aldrich) for 24 hours, followed by three washes with complete media. Cells were released from growth arrest by addition of complete media or OGF supplemented complete media. Synchronized cells were treated with 10^-6 M OGF for 21 hours, harvested with 0.25% trypsin-EDTA (Mediatech, Herndon, Va.) and fixed with 70% ethanol at −20° C. for up to 7 days before DNA analysis.
DNA content was obtained by incubating cells in PBS containing propidium iodide (0.1 mg/ml) and RNase A (0.02 mg/ml) for 15 minutes at 220 C. Fluorescence was measured and analyzed using a BD Biosciences FACScan flow cytometer (San Diego, Calif.) and Modfit Software (Topsham, Me.).

SCC-4 cells = assay: Growth curves of SCC-4 cells transfected with p16 siRNA or negative control siRNA
Description: The SCC-1 (UM-SCC-1) cell line was obtained from the University of Michigan Cancer Research Laboratory, and CAL-27 and SCC-4 cells were obtained from the American Type Culture Collection (Manassas, Va.). SCC-1 and CAL-27 cells were cultured in DMEM media, whereas SCC-4 cells were grown in 1:1 Hams F-12 DMEM media. All media was supplemented with 10% fetal bovine serum (HyClone, Logan, Utah), 1.2% sodium bicarbonate, and 5000 units/ml penicillin, 5 μg/ml streptomycin and 10 μg/ml neomycin. OGF was purchased from Sigma-Aldrich (St. Louis, Mo.), dissolved in sterile water, and used at a final concentration of 10^−6 M.
The p16-targeted siRNAs (antisense:5′ […]-3′; sense (SEQ ID NO:5): 5′ […]-3′(SEQ ID NO:6) were obtained as ready-annealed, purified duplex probes (Invitrogen, Carlsbad, Calif.). For transfection, 2×10^5 cells per well were seeded in 6-well plates containing 1 ml of serum-free media without antibiotics. In each well, 20 nM of p16-siRNA or control siRNA solutions in serum-free media were added. Cells were incubated for 4 h at 37° C. prior to the addition of OGF. Cultures were incubated for additional 20 h, and then 1 ml fresh complete media either lacking or containing OGF was added. At the indicated time points, cells were collected for growth curves or Western blotting. Three or more independent experiments were conducted. The control siRNAs were purchased from Ambion.

Rb protein = assay: Western blot of Rb and phospho-Rb in synchronized BxPC-3 cells
Description: Synchronized cells (2×10^6) from each treatment were solubilized in 200 μl RIPA buffer (1×PBS, 10 μM IGEPAL, 1 mg/ml SDS, 5 mg/ml deoxycholic acid), containing protease and phosphatase inhibitors (2 μg/ml aprotinin, 3 mg/ml phenylmethyl sulfonyl fluoride, 1 mM sodium orthovanidate, 1 μM okadaic acid). Total protein concentrations were measured using the DC protein assay kit (Bio-Rad Laboratories, Hercules, Calif.). Equal amounts of protein (40 μg) were subjected to 10% SDS-PAGE followed by transfer of proteins onto polyvinylidene difluoride (Millipore, Billerica, Mass.) using standard protocols.
The following antibodies were purchased from commercial sources: phospho-Rb (Ser795), phospho-Rb (Ser807/811) (Cell Signaling Technology, Beverly, Mass.); Cdk2, p57 (Santa Cruz Biotechnology, Santa Cruz, Calif.); p21, p27, total Rb (BD PharMingen, San Diego, Calif.); β-actin (Clone AC-15, Sigma-Aldrich).
Membranes were probed with secondary anti-rabbit or anti-mouse horseradish peroxidase-conjugated antibodies (GE Healthcare-Amersham Biosciences, Piscataway, N.J.), and developed using a chemiluminescence Western blotting detection system.
To determine equal loading of total protein samples, blots were re-probed with monoclonal antibody against β-actin at a dilution of 1:2000. If necessary, membranes were processed in stripping buffer (62.5 mM Tris-HCI and 100 mM β-mercaptoethanol/2% SDS, pH 6.7) at 50° C. before being re-probed.
To quantify expression levels or kinase activity, the optical density of each band was determined by densitometry and analyzed by QuickOne (Bio-Rad Laboratories). Each value was normalized to β-actin from the same blot. To report the changes due to OGF treatment, we calculated the fold increase by dividing the normalized value from the OGF treated samples by the normalized value of control samples at each time point; thus, increases due to OGF have values greater than one, and decreases due to OGF have values less than one. For all Western blot analyses, 3 or more independent experiments were performed.

SCC-1 cells = assay: Flow cytometry cell cycle distribution, synchronized SCC-1 cells; conditions: 10^-6 M OGF, 14 h
Description: For flow cytometry, cells were synchronized with 0.5 μg/ml nocodazole (Sigma-Aldrich) for 24 h, followed by three washes with complete media. Cells were released from growth arrest by addition of complete media or OGF-supplemented media. Synchronized cells were treated with 10^−6 M OGF for 14 h, harvested with 0.25% trypsin-EDTA (Mediatech, Herndon, Va.) and fixed with 70% ethanol at −20° C. for up to 7 days before DNA analysis. DNA content was obtained by incubating cells in PBS containing propidium iodide (0.1 mg/ml) and RNase A (0.02 mg/ml) for 15 min at 22° C. Fluorescence was measured and analyzed using a BD Biosciences FACScan flow cytometer (San Diego, Calif.) and Modfit Software (Topsham, Me.).

What does the source list for [Met^5]-enkephalin [OGF]?
cells in S phase (BxPC-3 cells): 28.0%; cells in the G2/M phase (BxPC-3 cells): 2.9%; percentage of cells in the G0/G1 phase (BxPC-3 cells): 69.1%; decrease of growth (SCC-4 cells; SCC-4 cells transfected with negative control siRNAs, 96 h): 43%; effect on growth of cells lacking p16 expression (SCC-4 cells; SCC-4 cells transfected with p16 siRNAs): no effect; level of phospho-Rb (Ser795) (Rb protein; 15, 18, and 21 hours, 10^-6 M OGF, significant at 21 hours (p<0.01)): decreased; phospho-Rb (pSer807/811) levels (Rb protein; OGF treatment, Western blot): did not alter; Expression of total Rb protein (Rb protein; after 21 hours of OGF treatment): not decreased; cells in the G2/M phase (SCC-1 cells): 22.7%; cells in the S phase (SCC-1 cells): 42.7%; percentage of cells in the G0/G1 phase (SCC-1 cells): 34.6%
